Data as given in patent publication US20170107207A1, “AMINOPYRAZOLONE DERIVATIVE” (DAIICHI SANKYO COMPANY, LIMITED, priority 2014, published 2017).

Columns and labels:
[1] = biological target: T1, TIP48/TIP49 complex (Homo sapiens, UniProt Q9Y230+Q9Y265); experiment: ATPase assay of TIP48/TIP49 complex (ADP-Glo); type: biochemical; conditions: concentration at which the ATPase activity was inhibited by 50%
T1 construct: made in house; host or cells: E. coli
Method in brief: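 Recombinant human TIP48 and TIP49 expressed in E. coli (24.5 μg/mL final) were incubated 1.5 h at room temperature with compound (0.0007–200 μM, 2% DMSO) in Tris-HCl pH 7.5 buffer containing MgCl2 and ATP. ADP formed was detected by ADP-Glo luminescence; inhibition came from dose-response curves.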

[2] = test system: human lymphoma cell line RAMOS cells; experiment: Cell growth inhibition test using RAMOS cell, MTT assay; type: cell-based; conditions: 50% growth inhibition concentration
Method: A cell growth inhibition test was carried out by treating human lymphoma cell line RAMOS cells with a test compound for a given period and then counting the number of viable cells by MTT assay or CellTiter-Glo Luminescent Cell Viability Assay (manufactured by Promega Corp.; hereinafter, referred to as ATP assay).
RAMOS cells were suspended in a medium (RPMI1640 medium containing 10% fetal bovine serum). The cell suspension was inoculated at 5000 cells/150 μL/well to a 96-well multiwell plate. The test compound was dissolved in DMSO, and this solution was diluted with medium to prepare a sample solution (DMSO concentration: 1% or lower). Subsequently, test compound-free medium or the sample solution was added thereto at 50 μL/well. The MTT assay was carried out at the day of addition of the sample solution or the DMSO dilution to the cells and after culture at 37° C. for 3 days under 5% CO2 of the cells supplemented with the sample solution or the medium. The MTT assay was carried out as follows.
A 5 mg/mL solution of MTT (3-(4,5-dimethylthiazol-2-yl)-2,5-diphenyltetrazolium bromide, Sigma-Aldrich Corp., M-2128) was prepared using a phosphate buffered solution (Dulbecco's phosphate-buffered saline). This MTT solution was added at 20 μL/well to the plate. Then, the plate was incubated at 37° C. for 4 hours under 5% CO2. The plate was centrifuged at 1200 rpm for 5 minutes, and then, the culture supernatant was removed by suction using a dispenser. DMSO was added thereto at 150 μL/well to dissolve formed formazan. […] from each well was rendered uniform by the stirring of the plate using a plate mixer. The absorbance of each well was measured using a plate reader under conditions involving OD of 540 nm and reference of 660 nm.
The number of viable cells and absorbance (hereinafter, referred to as an OD value) have been confirmed to correlate with each other. Therefore, the rate of cell growth was calculated according to the following expression: Rate of cell growth (T/C %) of a test compound-supplemented well=100×[(B−C)/(A−C)] wherein A represents the OD value (final culture date) of a test compound-free well; B represents the OD value (final culture date) of a test compound-containing well; and C represents the OD value (day of cell inoculation) of a well at the start of contact of the cells with the test compound.
T/C % at each concentration of the test compound was determined. The concentration at which the test compound offered 50% growth rate was calculated as a 50% growth inhibition concentration (GI50) value from the growth rates at two points interpolating 50% and the concentrations, and is shown in Table 56.

T1 sequence (Q9Y230 whole entry): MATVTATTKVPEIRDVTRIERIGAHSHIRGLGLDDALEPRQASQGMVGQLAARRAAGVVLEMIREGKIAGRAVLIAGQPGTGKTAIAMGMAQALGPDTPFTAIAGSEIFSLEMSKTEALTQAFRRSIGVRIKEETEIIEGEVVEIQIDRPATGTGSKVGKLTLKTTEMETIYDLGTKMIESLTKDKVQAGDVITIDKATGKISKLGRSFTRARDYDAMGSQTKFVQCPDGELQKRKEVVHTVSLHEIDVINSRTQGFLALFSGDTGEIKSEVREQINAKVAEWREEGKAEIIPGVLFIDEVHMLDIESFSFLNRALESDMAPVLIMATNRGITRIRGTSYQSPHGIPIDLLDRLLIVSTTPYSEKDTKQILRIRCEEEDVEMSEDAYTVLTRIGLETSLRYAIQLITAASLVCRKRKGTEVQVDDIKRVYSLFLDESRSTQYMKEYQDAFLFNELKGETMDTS
T1 sequence (Q9Y265 whole entry): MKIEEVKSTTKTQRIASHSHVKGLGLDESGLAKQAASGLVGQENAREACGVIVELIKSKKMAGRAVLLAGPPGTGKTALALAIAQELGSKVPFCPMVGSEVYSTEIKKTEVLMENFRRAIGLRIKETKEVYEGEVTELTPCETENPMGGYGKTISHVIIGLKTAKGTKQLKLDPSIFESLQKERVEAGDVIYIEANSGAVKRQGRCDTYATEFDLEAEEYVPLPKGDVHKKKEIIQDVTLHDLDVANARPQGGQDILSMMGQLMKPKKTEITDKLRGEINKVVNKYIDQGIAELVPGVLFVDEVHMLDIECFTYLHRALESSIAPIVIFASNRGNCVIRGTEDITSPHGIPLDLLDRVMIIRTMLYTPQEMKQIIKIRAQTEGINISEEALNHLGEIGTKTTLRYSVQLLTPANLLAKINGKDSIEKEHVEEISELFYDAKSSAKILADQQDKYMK

Structure (SMILES) | IC50 [1] | GI50 [2]
COc1ccc(CN(C)Cc2c(NC(=O)CC(C)(C)CNC(=O)c3cc(Cl)ccc3OC)c(=O)n(-c3ccccc3)n2C)c(OC)c1 [Example 3, 5-Chloro-N-{4-[(5-{[(2,4-dimethoxyphenylmethyl)-methylamino]methyl}-1-methyl-3-oxo-2-phenyl-2,3-dihydro-1H-pyrazol-4-yl)amino]-2,2-dimethyl-4-oxobutyl}-2-methoxybenzamide] | 0.054 µM | 0.85 µM
CNCc1c(NC(=O)CC(C)(C)CNC(=O)c2cc(Cl)ccc2OC)c(=O)n(-c2ccccc2)n1C [Example 4, 5-Chloro-N-(2,2-dimethyl-4-{[1-methyl-5-(methylaminomethyl)-3-oxo-2-phenyl-2,3-dihydro-1H-pyrazol-4-yl]amino}-4-oxobutyl)-2-methoxybenzamide] | 0.048 µM | 0.17 µM
COc1ccc(Cl)cc1C(=O)NCC(C)(C)CC(=O)Nc1c(CN(C)C)n(C)n(-c2ccccc2)c1=O [Example 5, 5-Chloro-N-[4-({5-[(dimethylamino)methyl]-1-methyl-3-oxo-2-phenyl-2,3-dihydro-1H-pyrazol-4-yl}amino)-2,2-dimethyl-4-oxobutyl]-2-methoxybenzamide] | 0.17 µM | 0.18 µM
COc1cc(F)c(Cl)cc1C(=O)NCC(C)(C)CC(=O)Nc1c(CN(C)C)n(C)n(-c2ccccc2)c1=O [Example 6, 5-Chloro-N-[4-({5-[(dimethylamino)methyl]-1-methyl-3-oxo-2-phenyl-2,3-dihydro-1H-pyrazol-4-yl}amino)-2,2-dimethyl-4-oxobutyl]-4-fluoro-2-methoxybenzamide] | 0.15 µM | 0.17 µM
COc1ncc(Cl)cc1C(=O)NCC(C)(C)CC(=O)Nc1c(CN(C)C)n(C)n(-c2ccccc2)c1=O [Example 7, 5-Chloro-N-[4-({5-[(dimethylamino)methyl]-1-methyl-3-oxo-2-phenyl-2,3-dihydro-1H-pyrazol-4-yl}amino)-2,2-dimethyl-4-oxobutyl]-2-methoxypyridine-3-carboxamide] | 0.11 µM | 0.47 µM
COc1ccc(Cl)cc1C(=O)NCC(C)(C)CC(=O)Nc1c(CN(C)CCO)n(C)n(-c2ccccc2)c1=O [Example 8, 5-Chloro-N-(4-[(5-{[2-hydroxyethyl(methyl)amino]methyl}-1-methyl-3-oxo-2-phenyl-2,3-dihydro-1H-pyrazol-4-yl)amino]-2,2-dimethyl-4-oxobutyl)-2-methoxybenzamide] | 0.096 µM | 0.17 µM
COc1cc(F)c(Cl)cc1NC(=O)CC(C)(C)CC(=O)Nc1c(CN(C)C)n(C)n(-c2ccccc2)c1=O [Example 9, N-(5-Chloro-4-fluoro-2-methoxyphenyl)-N′-{5-[(dimethylamino)methyl]-1-methyl-3-oxo-2-phenyl-2,3-dihydro-1H-pyrazol-4-yl}-3,3-dimethylpentanediamide] | 0.21 µM | 0.48 µM
CCOc1ccc(Cl)cc1C(=O)NCC(C)(C)CC(=O)Nc1c(CCNC(=O)OC(C)(C)C)n(C)n(-c2ccccc2)c1=O [Example 10, tert-Butyl N-{2-[4({4-[(5-chloro-2-ethoxybenzoyl)amino]-3,3-dimethylbutanoyl}amino)-2-methyl-5-oxo-1-phenyl-2,3-dihydro-1H-pyrazol-3-yl]ethyl}carbamate] | 0.014 µM | 0.045 µM
CCOc1ccc(Cl)cc1C(=O)NCC(C)(C)CC(=O)Nc1c(CCN(CC)CC)n(C)n(-c2ccccc2)c1=O [Example 17, 5-Chloro-N-[4-({5-[2-(diethylamino)ethyl]-1-methyl-3-oxo-2-phenyl-2,3-dihydro-1H-pyrazol-4-yl}amino)-2,2-dimethyl-4-oxobutyl]-2-ethoxybenzamide] | 0.06 µM | 0.13 µM
CCOc1ccc(Cl)cc1C(=O)NCC(C)(C)CC(=O)Nc1c(CCNC(C)C)n(C)n(-c2ccccc2)c1=O [Example 18, 5-Chloro-N-[4-({5-[2-(isopropylamino)ethyl]-1-methyl-3-oxo-2-phenyl-2,3-dihydro-1H-pyrazol-4-yl}amino)-2,2-dimethyl-4-oxobutyl]-2-ethoxybenzamide] | 0.065 µM | 0.55 µM
CCOc1ccc(Cl)cc1C(=O)NCC(C)(C)CC(=O)Nc1c(CCN(C)C(C)C)n(C)n(-c2ccccc2)c1=O [Example 19, 5-Chloro-2-ethoxy-N-{4-[(5-{2-[isopropyl(methyl)amino]ethyl}-1-methyl-3-oxo-2-phenyl-2,3-dihydro-1H-pyrazol-4-yl)amino]-2,2-dimethyl-4-oxobutyl}benzamide] | 0.063 µM | 0.15 µM
COc1ccc(Cl)cc1C(=O)NCC(C)(C)CC(=O)Nc1c(CCNC(=O)OC(C)(C)C)n(C)n(-c2ccccc2)c1=O [Example 20, tert-Butyl N-{2-[4-({4-[(5-chloro-2-methoxybenzoyl)amino]-3,3-dimethylbutanoyl}amino)-2-methyl-5-oxo-1-phenyl-2,3-dihyro-1H-pyrazol-3-yl]ethyl}carbamate] | 0.065 µM | 0.19 µM
COc1ccc(Cl)cc1C(=O)NCC(C)(C)CC(=O)Nc1c(CCN)n(C)n(-c2ccccc2)c1=O [Example 21] | 0.11 µM | 0.92 µM
COc1ccc(Cl)cc1C(=O)NCC(C)(C)CC(=O)Nc1c(CCN(C)C)n(C)n(-c2ccccc2)c1=O [Example 22, 5-Chloro-N-[4-({5-[2-(dimethylamino)ethyl]-1-methyl-3-oxo-2-phenyl-2,3-dihydro-1H-pyrazol-4-yl}amino)-2,2-dimethyl-4-oxobutyl]-2-methoxybenzamide] | 0.11 µM | 0.46 µM
CCOc1ccc(Cl)cc1NC(=O)CC(C)(C)CC(=O)Nc1c(CCN(C)C)n(C)n(-c2ccccc2)c1=O [Example 23, N-(5-Chloro-2-ethoxyphenyl)-N′-{5-[2-(dimethylamino)ethyl]-1-methyl-3-oxo-2-phenyl-2,3-dihydro-1H-pyrazol-4-yl}-3,3-dimethylpentanediamide] | 0.11 µM | 0.27 µM
CCOc1cc(F)c(Cl)cc1NC(=O)CC(C)(C)CC(=O)Nc1c(CCN(C)C)n(C)n(-c2ccccc2)c1=O [Example 24, N-(5-Chloro-2-ethoxy-4-fluorophenyl)-N′-{5-[2-(dimethylamino)ethyl]-1-methyl-3-oxo-2-phenyl-2,3-dihydro-1H-pyrazol-4-yl}-3,3-dimethylpentanediamide] | 0.38 µM | 0.48 µM
CCOc1ncc(Cl)cc1NC(=O)CC(C)(C)CC(=O)Nc1c(CCN(C)C)n(C)n(-c2ccccc2)c1=O [Example 25, N-(5-Chloro-2-ethoxy-3-pyridyl)-N′-{5-[2-(dimethylamino)ethyl]-1-methyl-3-oxo-2-phenyl-2,3-dihydro-1H-pyrazol-4-yl}-3,3-dimethylpentanediamide] | 0.14 µM | 0.49 µM
CCOc1ccc(Cl)cc1C(=O)NCC(C)(C)CC(=O)Nc1c(CCNC)n(C)n(-c2ccccc2)c1=O [Example 33, 5-Chloro-N-[2,2-dimethyl-4-({1-methyl-5-[2-(methylamino)ethyl]-3-oxo-2-phenyl-2,3-dihydro-1H-pyrazol-4-yl}amino)-4-oxobutyl]-2-ethoxybenzamide] | 0.063 µM | 0.13 µM
CCOc1ccc(Cl)cc1C(=O)NCC(C)(C)CC(=O)Nc1c(CCN(C)CC)n(C)n(-c2ccccc2)c1=O [Example 35, 5-Chloro-2-ethoxy-N-{4-[(5-{2-[ethyl(methyl)amino]ethyl}-1-methyl-3-oxo-2-phenyl-2,3-dihydro-1H-pyrazol-4-yl)amino]-2,2-dimethyl-4-oxobutyl}benzamide] | 0.026 µM | 0.098 µM
